Key:
Assay type in all cases: functional
Acinetobacter baumannii [1] = assay: Antibacterial activity against Acinetobacter baumannii 031 clinical incubated for 18 hrs by CLSI protocol based assay; conditions: Acinetobacter baumannii, 031, 18 h
Acinetobacter baumannii [2] = assay: Potentiation of novobiocin-induced antibacterial activity against colistin-resistant Acinetobacter baumannii 92247 clinical isolate assessed as novobiocin MIC at <= 7.1 uM incubated for 18 hrs by CLSI protocol based assay (reference value: 4 ug/ml); conditions: Acinetobacter baumannii, 92247, 18 h
Pseudomonas aeruginosa = assay: Potentiation of novobiocin-induced antibacterial activity against carbapenem-resistant Pseudomonas aeruginosa 260-97103 clinical isolate assessed as novobiocin MIC at <= 7.1 uM incubated for 18 hrs by CLSI protocol based assay (reference value: 256 ug/ml); conditions: 260-97103, 18 h

SMILES: NC[C@H]1O[C@H](O[C@H]2[C@H](OCCCCc3cn(CCCCO[C@@H]4[C@@H](O[C@H]5O[C@H](CO)[C@@H](O)[C@H](N)[C@H]5O)[C@H](N)C[C@H](N)[C@H]4O[C@H]4O[C@H](CN)[C@@H](O)C[C@H]4N)nn3)[C@@H](O[C@H]3O[C@H](CO)[C@@H](O)[C@H](N)[C@H]3O)[C@H](N)C[C@@H]2N)[C@H](N)C[C@@H]1O.O=C(O)C(F)(F)F.O=C(O)C(F)(F)F.O=C(O)C(F)(F)F.O=C(O)C(F)(F)F.O=C(O)C(F)(F)F.O=C(O)C(F)(F)F.O=C(O)C(F)(F)F.O=C(O)C(F)(F)F.O=C(O)C(F)(F)F.O=C(O)C(F)(F)F
- MIC (Acinetobacter baumannii [1]): > 128 µg/mL
- MIC (Acinetobacter baumannii [2]): 0.25 µg/mL
- MIC (Pseudomonas aeruginosa): 1 µg/mL
